Test results published in PMC6412019, “Discovery of NV-5138, the first selective Brain mTORC1 activator” (Scientific Reports, 2019).

Tested on: HeLa cells
Assay: 14C-leucine protein incorporation assay in HeLa cells
Assay type: cell-based, human
Conditions: 30 min labeling, CHX 10 ug/ml
Description: Since NV-5138 is an amino acid, we performed two different experiments to rule out any potential liabilities that could arise from the incorporation of NV-5138 into proteins. We first determined whether NV-5138 substitutes for any branched-chain amino acid or methionine into newly synthesized proteins using liquid chromatography followed by tandem mass spectroscopy (LC-MS/MS). NV-5138 (100 µM) or vehicle was incubated with serum and leucine-starved 293T cells for 6 hours followed by proteomic analysis by mass spectrometry.
After incubation, cells were harvested and lysed in Tris/HCl 10 mM pH 7.4 plus 1% NP40. Lysate were mixed with water and 20% trichloroacetic acid (1:1:2) and incubated on ice for 2 h to precipitate the protein. Proteins were collected by centrifugation, solubilized in NaOH, placed in scintillation fluid and read on a Wallac Microbeta Trilux 2450 with a 2-min count. Scintillation values were normalized as the percentage of the counts from the DMSO-treated wells.

## C[C@@H]1C[C@@H]([C@H](O)CC2CC(=O)NC(=O)C2)C(=O)[C@@H](C)C1 [cyclohexamide, reference compound]
  effect on incorporation of 14C-leucine into precipitated proteins: blocked incorporation
